Legend:
[1] = system: P. falciparum; test: EC50 listed in S2 Table Metabolomics (used to set the concentration tested); format: cell-based; conditions: Plasmodium falciparum; EC50 used for Factor_XEC50 in metabolomics; read-out: EC50_nM
[2] = system: P. falciparum 3D7 trophozoites; test: Metabolomic fingerprint profiling LC-MS; format: cell-based, Plasmodium falciparum; parameters: UDP-D-glucose / ADP-D-glucose: unit not given here; conditions: for Acetyllysine / N-acetyl-L-ornithine / N-carbamoyl-L-aspartate / NADPH / dAMP / dCMP / dTDP / dTMP / dTTP / dihydroorotate / orotate / DLH / DLS/SDL/SID / PD / PEE / PVNF / 3-phosphoglycerate / ADP-D-glucose / ATP / CDP / D-sedoheptulose-1/7-phosphate / FAD / GMP / NAD+ / NADP+ / Octoluse Bisphosphate / Pyroglutamic acid / UDP-D-glucose / UDP-D-glucuronate / UDP-N-acetyl-glucosamine / UDP / UMP / UTP / a-ketoglutarate / citrate/isocitrate / cytidine / dATP / dGMP/AMP / fumarate / glucose-1/6-phosphate / glycerate / guanine / guanosine / hypoxanthine / indole / inosine / nicotinate / ornithine / phosphoenolpyruvate / pyruvate / ribose-phosphate / sarcosine/alanine / sn-glycerol-3-phosphate / succinate/methylmalonic acid / uridine / xanthosine: S2 Table Metabolomics; for Acetyllysine: metabolite Acetyllysine; for N-acetyl-L-ornithine: metabolite N-acetyl-L-ornithine; for N-carbamoyl-L-aspartate: metabolite N-carbamoyl-L-aspartate; for NADPH: metabolite NADPH; for dAMP: metabolite dAMP; for dCMP: metabolite dCMP; for dTDP: metabolite dTDP; for dTMP: metabolite dTMP; for dTTP: metabolite dTTP; for dihydroorotate: metabolite dihydroorotate; for orotate: metabolite orotate; for DLH: peptide DLH; for DLS/SDL/SID: peptide DLS/SDL/SID; for PD: peptide PD; for PEE: peptide PEE; for PVNF: peptide PVNF; for 3-phosphoglycerate: metabolite 3-phosphoglycerate; for ADP-D-glucose: metabolite ADP-D-glucose; for ATP: metabolite ATP; for CDP: metabolite CDP; for CDP / D-sedoheptulose-1/7-phosphate / GMP / Octoluse Bisphosphate / UDP / UMP / UTP / citrate/isocitrate / dGMP/AMP / fumarate / glucose-1/6-phosphate / glycerate / guanine / guanosine / inosine / pyruvate / sarcosine/alanine / succinate/methylmalonic acid / uridine / xanthosine: change in metabolite level after compound treatment; for D-sedoheptulose-1/7-phosphate: metabolite D-sedoheptulose-1/7-phosphate; for FAD: metabolite FAD; for GMP: metabolite GMP; for NAD+: metabolite NAD+; for NADP+: metabolite NADP+; for Octoluse Bisphosphate: metabolite Octoluse Bisphosphate; for Pyroglutamic acid: metabolite Pyroglutamic acid; for UDP-D-glucose: metabolite UDP-D-glucose; for UDP-D-glucuronate: metabolite UDP-D-glucuronate; for UDP-N-acetyl-glucosamine: metabolite UDP-N-acetyl-glucosamine; for UDP: metabolite UDP; for UMP: metabolite UMP; for UTP: metabolite UTP; for a-ketoglutarate: metabolite a-ketoglutarate; for citrate/isocitrate: metabolite citrate/isocitrate; for cytidine: metabolite cytidine; for dATP: metabolite dATP; for dGMP/AMP: metabolite dGMP/AMP; for fumarate: metabolite fumarate; for glucose-1/6-phosphate: metabolite glucose-1/6-phosphate; for glycerate: metabolite glycerate; for guanine: metabolite guanine; for guanosine: metabolite guanosine; for hypoxanthine: metabolite hypoxanthine; for indole: metabolite indole; for inosine: metabolite inosine; for 2_3-Diphosphoglyceric acid / 4-phosphopantothenate / 6-phospho-D-gluconate / FMN / IMP / Pyrophosphate / Sedoheptoluse bisphosphate / cyclic-AMP / glutathione disulfide / lactate / myo-inositol: metabolite level change after treatment; for nicotinate: metabolite nicotinate; for ornithine: metabolite ornithine; for phosphoenolpyruvate: metabolite phosphoenolpyruvate; for pyruvate: metabolite pyruvate; for ribose-phosphate: metabolite ribose-phosphate; for sarcosine/alanine: metabolite sarcosine/alanine; for sn-glycerol-3-phosphate: metabolite sn-glycerol-3-phosphate; for succinate/methylmalonic acid: metabolite succinate/methylmalonic acid; for uridine: metabolite uridine; for xanthosine: metabolite xanthosine

CCc1c(C)c(=N)c2ccccc2n1C [MMV006278]
EC50 [1]: 378 nM
Acetyllysine [2]: -0.2738
N-acetyl-L-ornithine [2]: -0.3387
N-carbamoyl-L-aspartate [2]: 0.04339
NADPH [2]: -0.1545
dAMP [2]: -0.2592
dCMP [2]: 0.05199
dTDP [2]: -0.2955
dTMP [2]: -0.278
dTTP [2]: 0.1315
dihydroorotate [2]: 0.1029
orotate [2]: -0.07528
DLH [2]: 0.1151
DLS/SDL/SID [2]: -0.1067
PD [2]: -0.1923
PEE [2]: 0.09363
PVNF [2]: -0.2186
3-phosphoglycerate [2]: -0.1758
ADP-D-glucose [2]: -0.3132
ATP [2]: -0.07819
CDP [2]: -0.1774
D-sedoheptulose-1/7-phosphate [2]: -0.2519
FAD [2]: -0.07776
GMP [2]: -0.3571
NAD+ [2]: -0.07608
NADP+ [2]: -0.2182
Octoluse Bisphosphate [2]: -0.2383
Pyroglutamic acid [2]: -0.07564
UDP-D-glucose [2]: -0.16
UDP-D-glucuronate [2]: -0.1623
UDP-N-acetyl-glucosamine [2]: -0.2266
UDP [2]: -0.2326
UMP [2]: -0.3171
UTP [2]: 0.05042
a-ketoglutarate [2]: 0.05252
citrate/isocitrate [2]: 0.03563
cytidine [2]: -0.182
dATP [2]: 0.1448
dGMP/AMP [2]: -0.3534
fumarate [2]: -0.3107
glucose-1/6-phosphate [2]: -0.535
glycerate [2]: -0.4983
guanine [2]: -0.2094
guanosine [2]: -0.1411
hypoxanthine [2]: 0.04937
indole [2]: -0.04764
inosine [2]: -0.3767
2_3-Diphosphoglyceric acid [2]: -0.2671
4-phosphopantothenate [2]: -0.1093
6-phospho-D-gluconate [2]: -0.1749
FMN [2]: 0.06658
IMP [2]: -0.1794
Pyrophosphate [2]: -0.2417
Sedoheptoluse bisphosphate [2]: -0.1437
cyclic-AMP [2]: -0.03098
glutathione disulfide [2]: -0.1999
lactate [2]: 0.04854
myo-inositol [2]: 0.07173
nicotinate [2]: -0.02818
ornithine [2]: 0.04171
phosphoenolpyruvate [2]: -0.1381
pyruvate [2]: -0.06156
ribose-phosphate [2]: 0.02401
sarcosine/alanine [2]: -0.2797
sn-glycerol-3-phosphate [2]: -0.6565
succinate/methylmalonic acid [2]: -0.7483
uridine [2]: -0.02002
xanthosine [2]: -0.104

COc1cccc(NC(=O)[C@H](C(C)C)n2c(=O)[nH]c3ccccc3c2=O)c1 [MMV665878]
EC50 [1]: 139 nM
Acetyllysine [2]: -3.834
N-acetyl-L-ornithine [2]: -2.277
N-carbamoyl-L-aspartate [2]: -2.026
NADPH [2]: -0.665
dAMP [2]: 2.607
dCMP [2]: 1.538
dTDP [2]: 2.818
dTMP [2]: 4.246
dTTP [2]: 1.03
dihydroorotate [2]: -1.926
orotate [2]: 0.2146
DLH [2]: -4.819
DLS/SDL/SID [2]: -3.927
PD [2]: -1.32
PEE [2]: -2.783
PVNF [2]: -5.1424
3-phosphoglycerate [2]: -0.5747
ADP-D-glucose [2]: -0.6055
ATP [2]: -2.891
CDP [2]: 0.1584
D-sedoheptulose-1/7-phosphate [2]: -0.5795
FAD [2]: -1.328
GMP [2]: -2.538
NAD+ [2]: 0.9896
NADP+ [2]: -0.2932
Octoluse Bisphosphate [2]: -2.487
Pyroglutamic acid [2]: -0.4358
UDP-D-glucose [2]: -0.03487
UDP-D-glucuronate [2]: -0.6105
UDP-N-acetyl-glucosamine [2]: 0.07778
UDP [2]: -0.1367
UMP [2]: 0.1216
UTP [2]: -1.546
a-ketoglutarate [2]: -0.5207
citrate/isocitrate [2]: -1.159
cytidine [2]: 0.1724
dATP [2]: -1.5606
dGMP/AMP [2]: -1.273
fumarate [2]: 0.3725
glucose-1/6-phosphate [2]: -0.9191
glycerate [2]: 0.3692
guanine [2]: -0.09985
guanosine [2]: -0.2889
hypoxanthine [2]: -0.3925
indole [2]: -0.3292
inosine [2]: -0.04266
2_3-Diphosphoglyceric acid [2]: -1.256
4-phosphopantothenate [2]: -0.4545
6-phospho-D-gluconate [2]: -0.4297
FMN [2]: -0.3548
IMP [2]: -0.5176
Pyrophosphate [2]: -1.335
Sedoheptoluse bisphosphate [2]: -0.9263
cyclic-AMP [2]: -1.127
glutathione disulfide [2]: -0.2446
lactate [2]: -1.397
myo-inositol [2]: -0.3766
nicotinate [2]: 0.2929
ornithine [2]: 0.191
phosphoenolpyruvate [2]: -0.242
pyruvate [2]: -1.851
ribose-phosphate [2]: -0.6091
sarcosine/alanine [2]: -1.666
sn-glycerol-3-phosphate [2]: 0.02823
succinate/methylmalonic acid [2]: 0.3592
uridine [2]: 0.5173
xanthosine [2]: -1.769

CCOc1cc2c(cc1OCC)C(c1cc(OC)c(O)cc1Cl)NCC2 (stereo not drawn) [MMV008956]
EC50 [1]: 370 nM
Acetyllysine [2]: -0.8944
N-acetyl-L-ornithine [2]: -0.5916
N-carbamoyl-L-aspartate [2]: 0.571
NADPH [2]: 0.6672
dAMP [2]: 1.243
dCMP [2]: 4.619
dTDP [2]: 1.146
dTMP [2]: 1.439
dTTP [2]: 1.156
dihydroorotate [2]: 1.1855
orotate [2]: -0.3284
DLH [2]: -3.711
DLS/SDL/SID [2]: -0.5828
PD [2]: -0.4938
PEE [2]: -0.813
PVNF [2]: -0.872
3-phosphoglycerate [2]: 0.6004
ADP-D-glucose [2]: 0.1393
ATP [2]: 0.8747
CDP [2]: 1.061
D-sedoheptulose-1/7-phosphate [2]: 0.1684
FAD [2]: 0.6779
GMP [2]: -0.4979
NAD+ [2]: 0.03875
NADP+ [2]: 0.5626
Octoluse Bisphosphate [2]: 0.08662
Pyroglutamic acid [2]: 0.4321
UDP-D-glucose [2]: 0.1438
UDP-D-glucuronate [2]: 0.2178
UDP-N-acetyl-glucosamine [2]: 0.5265
UDP [2]: 1.214
UMP [2]: 0.03068
UTP [2]: 0.582
a-ketoglutarate [2]: -0.2514
citrate/isocitrate [2]: -0.7004
cytidine [2]: 0.5985
dATP [2]: 0.6577
dGMP/AMP [2]: 0.5512
fumarate [2]: -0.2713
glucose-1/6-phosphate [2]: 2.3505
glycerate [2]: 0.6776
guanine [2]: 0.5662
guanosine [2]: -1.286
hypoxanthine [2]: 0.3973
indole [2]: -0.009638
inosine [2]: -0.3408
2_3-Diphosphoglyceric acid [2]: 1.008
4-phosphopantothenate [2]: 0.721
6-phospho-D-gluconate [2]: 0.8262
FMN [2]: 0.6429
IMP [2]: 0.4913
Pyrophosphate [2]: -0.1587
Sedoheptoluse bisphosphate [2]: 0.3697
cyclic-AMP [2]: 0.7848
glutathione disulfide [2]: 0.5413
lactate [2]: 1.983
myo-inositol [2]: 3.051
nicotinate [2]: 0.3445
ornithine [2]: -0.06192
phosphoenolpyruvate [2]: 0.186
pyruvate [2]: 0.4759
ribose-phosphate [2]: 0.1544
sarcosine/alanine [2]: -0.3792
sn-glycerol-3-phosphate [2]: 0.3263
succinate/methylmalonic acid [2]: -0.2652
uridine [2]: 0.5193
xanthosine [2]: -1.526

— publication PMC4965013, “Open Source Drug Discovery with the Malaria Box Compound Collection for Neglected Diseases and Beyond” (PLoS Pathogens, 2016)
